Results published in US20260174748A1, “AGENT FOR ALLEVIATING CLOZAPINE-INDUCED SIALORRHEA” (National University Corporation Chiba University, priority 2022, published 2026).
Like-named read-outs stand apart in the source and are kept apart here.

Columns and labels:
Format in all cases: in vivo, rat
[1] = tested on: CIS model rats; assay: Experiment 5: MK-801 in combination with NMDA receptor agonists D-serine or Glycine in CIS model rats; details: 3 times; for reduction in saliva amount by MK-801, compared to group B / resulting saliva amount relative to group A (control): 900 mg/kg oral, 1 hour later MK-801 0.1 mg/kg intraperitoneal; for reduction in saliva amount by MK-801, compared to group B: D-serine p<0.05, glycine p<0.01; for resulting saliva amount relative to group A (control): day 9
Description: (§1) Water and feed were limited from 1 hour before the saliva amount measurement.
(§2) As a method for measuring the amount of saliva, a small piece of cotton ball was placed in the mouth of the restrained rat and swabbed for 10 seconds (the saliva was absorbed into the cotton ball). This was repeated three times, and the mass change of the cotton ball was measured. The mass change was measured as the saliva amount collected over a total of 30 seconds.
Experiment 5 was performed on CIS model rats of groups A to D as follows.
• Group A (control): The solvent (5 mL/kg) was orally administered, and then 1 hour later, saline (1 mL/kg) was intraperitoneally administered. This administration was performed for a total of 3 times. • Group B: The solvent (5 mL/kg) was orally administered, and then 1 hour later, MK-801 (0.1 mg/kg) was intraperitoneally administered. This administration was performed for a total of 3 times. • Group C: D-serine (900 mg/kg) was orally administered, and then 1 hour later, MK-801 (0.1 mg/kg) was intraperitoneally administered. This administration was performed for a total of 3 times. • Group D: Glycine (900 mg/kg) was orally administered, and then 1 hour later, MK-801 (0.1 mg/kg) was intraperitoneally administered. This administration was performed for a total of 3 times.
Note that the administration was performed once in the morning and once in the afternoon on day 8 and once in the morning on day 9 for a total of 3 times. The saliva amount was measured 1 hour after the final administration.

[2] = tested on: CIS model rats; assay: Experiment 4: acute phase effect of MK-801 and SA4503 on clozapine-induced sialorrhea; details: total of 3 times, 1 hour after final administration
Description: as §1, §2
The alleviating effect (acute phase effect) on clozapine-induced sialorrhea by a selective NMDA receptor antagonist MK-801 and a selective sigma-1 receptor agonist SA4503 were investigated. Experiment 4 was performed on CIS model rats of groups A to C as follows.
• Group A (control): Intraperitoneal administration of saline (1 mL/kg) for a total of 3 times • Group B: Intraperitoneal administration of MK-801 (0.1 mg/kg) for a total of 3 times • Group C: Intraperitoneal administration of SA4503 (1 mg/kg) for a total of 3 times
Note that the intraperitoneal administration was performed once in the morning and once in the afternoon on day 8 and once in the morning on day 9 for a total of 3 times. The saliva amount was measured 1 hour after the final administration.

[3] = tested on: male Wister rats; assay: Creation of CIS model animals: saliva amount after oral clozapine; details: for saliva amount: 7 days
Description: CIS model animals were created with reference to previous studies (Ishikawa S, J. Pharmacol. Exp. Ther., 2020, November; 375(2): 376-384).
As experimental animals, 6 to 8-week-old male Wister rats (made by CLEA Japan, Inc.) were used. The animals were freely ingested and fed on water and normal feed except for the period of time from 1 hour before the saliva amount measurement described below to the measurement.
as §1, §2

[4] = tested on: CIS model rats; details: group C
Description: as §1, §2
The dose and period of administration of the NMDA receptor antagonist dextromethorphan (DXM) were investigated using the above-described CIS model animals (CIS model rats). Experiment 1 was performed on CIS model rats of groups A to C as follows.
The saliva amount was measured before drug administration on day 14 (24 hours after drug administration up to day 13).

[5] = tested on: CIS model rats; details: group B, DXM 30 mg/kg/day intraperitoneal on days 8 and 9 after clozapine 100 mg/kg/day days 1-7; p<0.01
Description: as §1, §2
In the above Experiment 1, the saliva amount was measured 24 hours after DXM administration. […] The following studies were performed on the acute phase effect of dextromethorphan (DXM) using the above-described CIS model animals (CIS model rats).
Swabs were conducted on a daily basis to accustom the model animals with saliva measurements.
• Group A: Intraperitoneal administration of saline (1 mL/kg) once per day • Group B: Intraperitoneal administration of DXM (30 mg/kg/day) once per day
On Day 9, the saliva amount was measured 1 hour after DXM administration.

[6] = tested on: CIS model rats; details: for change in saliva amount from day 7 to day 9 (1 hour after administration): total of 3 times
Description: as §1, §2
The dose of dextromethorphan (DXM) was changed to examine the dose-dependency of clozapine-induced sialorrhea suppression effect.
The following studies were performed on the dose-dependency of the acute phase effect of DXM using the above-described CIS model animals (CIS model rats).
Note that swabs were performed on days 5 and 6 to accustom the model animals with the saliva measurement.
• Group A: Intraperitoneal administration of saline (1 mL/kg) for a total of 3 times • Group B: Intraperitoneal administration of saline (1 mL/kg) for a total of 3 times • Group C: Intraperitoneal administration of DXM (3 mg/kg) for a total of 3 times • Group D: Intraperitoneal administration of DXM (30 mg/kg) for a total of 3 times • Group E: Intraperitoneal administration of DXM (60 mg/kg) for a total of 3 times
The agent of the above dose was administered once in the morning and once in the afternoon on day 8 and once in the morning on day 9 for a total of 3 times. The saliva amount was measured 1 hour after the final administration.

## N[C@H](CO)C(=O)O [D-serine]
[1]
  reduction in saliva amount by MK-801, compared to group B: significantly antagonized
  resulting saliva amount relative to group A (control): same level as that in group A

## C[C@]12N[C@H](Cc3ccccc31)c1ccccc12 [MK-801, dizocilpine (MK-801)]
[2]; group B, MK-801 0.1 mg/kg intraperitoneal, p<0.01
  saliva amount on day 9 compared to group A (control): significantly reduced
[1]; group B, solvent oral then MK-801 0.1 mg/kg intraperitoneal, p<0.05
  saliva amount on day 9 compared to group A (control): significantly reduced

## COc1ccc(CCN2CCN(CCCc3ccccc3)CC2)cc1OC [SA4503]
[2]; group C, SA4503 1 mg/kg intraperitoneal, p<0.05
  saliva amount on day 9 compared to group A (control): significantly reduced

## CN1CCN(C2=Nc3cc(Cl)ccc3Nc3ccccc32)CC1 [clozapine]
[3]; 25 mg/kg/day orally once per day
  saliva amount: did not increase
[3]; 50 mg/kg/day orally once per day, from day 3 of administration
  saliva amount: increased significantly
[3]; 100 mg/kg/day orally once per day, from day 3 of administration
  saliva amount: increased significantly
[3]; single oral dose of 25, 50 or 100 mg/kg/day, measured 4 times per day, every 6 hours from 1 hour after administration
  amount of saliva secretion: no increase in the amount of saliva secretion was observed

## COc1ccc2c(c1)[C@]13CCCC[C@@H]1[C@H](C2)N(C)CC3 [dextromethorphan]
[4]; DXM 30 mg/kg/day intraperitoneal + clozapine, compared to groups A and B, p<0.01
  change in saliva amount on day 14 based on the saliva amount on day 7: significantly reduced
[4]; DXM 30 mg/kg/day intraperitoneal on days 8 to 13 in addition to clozapine 100 mg/kg/day, 24 hours after administration
  saliva amount on day 14: reduction of saliva amount was observed
[5]
  saliva amount at 1 hour after administration on day 9: significantly reduced
[6]; DXM 60 mg/kg compared to DXM 3 mg/kg, intraperitoneal, 3 times, p<0.01
  change in saliva amount from day 7 to day 9, group E compared to group C: significantly reduced
[6]; DXM 3, 30, 60 mg/kg intraperitoneal
  dose-dependency of clozapine-induced sialorrhea suppression effect: dose-dependent
[6]; group D, DXM 30 mg/kg intraperitoneal, p<0.05
  change in saliva amount from day 7 to day 9 (1 hour after administration): significantly reduced
[6]; group E, DXM 60 mg/kg intraperitoneal, p<0.001
  change in saliva amount from day 7 to day 9 (1 hour after administration): significantly reduced

## NCC(=O)O [glycine, Glycine]
[1]
  reduction in saliva amount by MK-801, compared to group B: significantly antagonized
  resulting saliva amount relative to group A (control): same level as that in group A
